Results taken from US20240408071A1, “NOVEL COMBINATION OF SEROTONIN RECEPTOR (5-HTR2B) ANTAGONIST AND AN IMMUNOMODULATOR AND CHEMOTHERAPEUTIC DRUGS FOR INHIBITION OF CANCER” (NATIONAL CENTRE FOR CELL SCIENCE, priority 2021, published 2024).

Columns and labels:
serotonin = assay: Serum serotonin level in MC38 colon tumor-bearing mice; assay type: in vivo; details: MC38-induced colon tumor-bearing mice, SSRI treatment
Protocol: This secretory variant of PD-L1 is responsible for most of the resistance to the anti-PD-L1 therapy in the tumor.
(§1) Universal competitive serotonin ELISA kit was purchased from Novus biological (Catalog #NBP2-68127), and ELISA was performed according to the manufacturer's protocol. Mouse PD-L1 DuoSet ELISA kit was procured from the R&D System (Catalog #DY1019-05), and the ELISA was performed according to the manufacturer's guidelines.

MC38 colon cancer cells = assay: MC38 colon tumor growth (tumor volume) in C57BL/6 mice; assay type: in vivo; details: sertraline hydrochloride 15 mg/kg/week (FIG. 7C)
Protocol: Tumor volumes were measured and plotted. (B) MC38 colon cancer cells were injected subcutaneously into the right flank of C57BL/6 mice. After seven days when tumors became palpable, one group was treated with 5-HTR7 antagonist SB-269970 (n=6 mice; 3 mg/kg/day) or left untreated (n=6 mice). Tumor volume was measured and plotted. (C) After seven days of the setting of tumor growth, one group was treated with a serotonin transporter blocker (SSRI) sertraline hydrochloride (n=6 mice; 15 mg/kg/week) or left untreated (n=6 mice). Tumor volume was measured and plotted. (D) C57BL/6 mice were given subcutaneously injected MC38 cells. After seven days of tumor growth, one group of mice was treated with different doses of 5-HTR2B antagonist SB-215505 (n=6). Tumor volume was measured and plotted. (E) C57BL/6 mice were given subcutaneously injected MC38 cells. After seven days of the tumor growth, one group of mice was treated with different doses of 5-HTR2B antagonist SB-215505 (n=6), one group treated with 5-HTR2B agonist BW-723C86 (n=6; 4 mg/kg/day). Tumor volume was measured and plotted. (F) MC38 cells were subcutaneously injected into C57BL/6 mice. After seven days when the tumor became palpable in mice, one group of mice was treated with FDA-approved 5-HTR2B antagonist cariprazine (Carispec; Sun pharma) via oral gavage (n=5 mice; dose 5 mg/kg body weight/day) or left untreated (n=5 mice). Tumor growth was measured and plotted. […] All the statistical analysis was performed using Student's ‘t’ test or two-way ANOVA using Sidak's multiple comparison test. *P<0.05; **P<0.01; ***P<0.00; ****P<0.0001 Error bar represents mean±standard error of means (SEM).

PD-L1 = assay: Serum PD-L1 ELISA in MC38 tumor-bearing mice; assay type: in vivo, C57BL/6J mice; details: MC38-induced colon tumor-bearing mice, SSRI treatment
Protocol: FIG. 13 depicts 5-HTR2B signaling promotes PD-L1 expression on the MC38 cell line in vitro: (A-B) MC38 cells are treated with 5-HTR2B agonist (BW-723C86-50 μM), serotonin (100 μM), and 5-HTR2B antagonist (RS-127445-50 μM) for 72 hours, and the PD-L1 expression was checked by flow cytometry and the percentage of PD-L1^+ MC38 cells was plotted. (C-D) MFI of PD-L1 from the above experiment were plotted as histogram overlay (C) or as statistical data points (D). (E) Relative PD-L1 mRNA expression in MC38 cells following BW-723C86 and RS-127445 treatment for 48 hours. Here the values are shown as a fold change as compared to control MC38 cells. […] All the statistical analysis was performed using either Student's ‘t’ test or two-way ANOVA using Sidak's multiple comparison test. *P<0.05; **P<0.01; […]; ****P<0.0001 Error bar represents mean±standard error of means (SEM).
as §1
To understand it, investigations were done on whether 5-HTR2B signaling also affects the surface expression of molecules that alters inflammatory and cytotoxic immune cells. Among different molecules, PD-L1 is of particular interest as it is an immune checkpoint ligand that affects cytotoxic T-cell responses toward cancer. […] (FIG. 13F).

SMILES: CN[C@H]1CC[C@@H](c2ccc(Cl)c(Cl)c2)c2ccccc21 [sertraline]
- free serotonin level in the serum (serotonin): increased free serotonin level in the serum
- MC38 tumor growth (MC38 colon cancer cells): promotes MC38 tumor growth
- secretory PD-L1 variant level in the serum (PD-L1): enhanced the secretory PD-L1 variant level in the serum
